Measured values from PubChem BioAssay AID190 (DTP/NCI, 2004).
Several values for one entry are separate records, joined by “and”; a condition that tells them apart may be missing. Equal entries are not always repeated. Toxic doses and inconclusive results are not listed. Rule for the calls: active = survival T/C of 150% or more; inactive = T/C below 125% in these data.

System: AKR/Lw mice, AKR lymphoma ip, median survival T/C
Assay: NCI In Vivo Anticancer Drug Screen. Data for tumor model Lymphoma AKR (Transplanted) (intraperitoneal) in AKR/Lw mice
Details: endpoint: median survival time, higher = longer survival
Protocol: The antitumor activity of compounds was measured in mice bearing transplantable tumors. Survival or tumor size were measured and the results are expressed as the measurement made in the treated group (T) divided by the measurement made in the vehicle treated control group (C). The tumor model used in this assay is Lymphoma AKR (Transplanted) (intraperitoneal) in AKR/Lw mice

[1] = dose: 12.5 mg/kg/injection, schedule: Q01DX009 (ip), vehicle: Klucel (hydroxypropylcellulose) (HPC)
[2] = dose: 25.0 mg/kg/injection, schedule: Q01DX009 (ip), vehicle: Klucel (hydroxypropylcellulose) (HPC)
[3] = dose: 25.0 mg/kg/injection, schedule: Q01DX009 (ip), vehicle: saline
[4] = dose: 25.0 mg/kg/injection, schedule: Q04DX003 (ip), vehicle: Klucel (hydroxypropylcellulose) (HPC)
[5] = dose: 25.0 mg/kg/injection, schedule: Q04DX003 (ip), vehicle: saline
[6] = dose: 50.0 mg/kg/injection, schedule: Q01DX009 (ip), vehicle: saline
[7] = dose: 50.0 mg/kg/injection, schedule: Q04DX003 (ip), vehicle: saline
[8] = dose: 100.0 mg/kg/injection, schedule: Q04DX003 (ip), vehicle: Klucel (hydroxypropylcellulose) (HPC)
[9] = dose: 100.0 mg/kg/injection, schedule: Q04DX003 (ip), vehicle: saline
[10] = dose: 200.0 mg/kg/injection, schedule: Q01DX001 (ip), vehicle: saline
[11] = dose: 200.0 mg/kg/injection, schedule: Q04DX003 (ip), vehicle: Klucel (hydroxypropylcellulose) (HPC)
[12] = dose: 400.0 mg/kg/injection, schedule: Q01DX001 (ip), vehicle: saline
[13] = dose: 100.0 mg/kg/injection, schedule: Q01DX001 (ip), vehicle: saline
[14] = dose: 100.0 mg/kg/injection, schedule: Q01DX001 (ip), vehicle: Klucel (hydroxypropylcellulose) (HPC)
[15] = dose: 200.0 mg/kg/injection, schedule: Q01DX001 (ip), vehicle: Klucel (hydroxypropylcellulose) (HPC)
[16] = dose: 400.0 mg/kg/injection, schedule: Q01DX001 (ip), vehicle: Klucel (hydroxypropylcellulose) (HPC)

Measured: T/C

COc1ccc2cc1Oc1ccc(cc1)C[C@H]1c3cc(c(OC)cc3CCN1C)Oc1c(OC)c(OC)cc3c1[C@H](C2)N(C)CC3
inactive: dose: 6.2 mg/kg/injection, schedule: Q01DX009 (ip), vehicle: Klucel (hydroxypropylcellulose) (HPC) 110 % of control | dose: 7.5 mg/kg/injection, schedule: Q01DX009 (ip), vehicle: saline 90 % of control | [1] 107 % of control and 113 % of control | dose: 12.5 mg/kg/injection, schedule: Q01DX009 (ip), vehicle: saline 111 % of control | dose: 25.0 mg/kg/injection, schedule: Q01DX001 (ip), vehicle: Klucel (hydroxypropylcellulose) (HPC) 94 % of control (2×) and 97 % of control | dose: 25.0 mg/kg/injection, schedule: Q01DX001 (ip), vehicle: saline 95 % of control | [2] 97 % of control and 100 % of control (2×) | [3] 94 % of control | [4] 87 % of control | [5] 88 % of control and 109 % of control | dose: 32.0 mg/kg/injection, schedule: Q04DX003 (ip), vehicle: water 100 % of control | dose: 50.0 mg/kg/injection, schedule: Q01DX001 (ip), vehicle: Klucel (hydroxypropylcellulose) (HPC) 94 % of control and 110 % of control | dose: 50.0 mg/kg/injection, schedule: Q01DX001 (ip), vehicle: saline 95 % of control | dose: 50.0 mg/kg/injection, schedule: Q01DX009 (ip), vehicle: Klucel (hydroxypropylcellulose) (HPC) 94 % of control and 107 % of control | [6] 94 % of control and 116 % of control | dose: 50.0 mg/kg/injection, schedule: Q04DX003 (ip), vehicle: Klucel (hydroxypropylcellulose) (HPC) 87 % of control | [7] 97 % of control and 111 % of control and 114 % of control | dose: 64.0 mg/kg/injection, schedule: Q04DX003 (ip), vehicle: water 96 % of control | dose: 75.0 mg/kg/injection, schedule: Q01DX001 (ip), vehicle: Klucel (hydroxypropylcellulose) (HPC) 94 % of control | dose: 100.0 mg/kg/injection, schedule: Q01DX009 (ip), vehicle: Klucel (hydroxypropylcellulose) (HPC) 100 % of control | dose: 100.0 mg/kg/injection, schedule: Q01DX009 (ip), vehicle: saline 100 % of control and 106 % of control | [8] 97 % of control | [9] 98 % of control and 100 % of control and 111 % of control | dose: 128.0 mg/kg/injection, schedule: Q04DX003 (ip), vehicle: water 107 % of control | [10] 87 % of control and 104 % of control and 111 % of control | dose: 200.0 mg/kg/injection, schedule: Q01DX009 (ip), vehicle: saline 88 % of control and 94 % of control | [11] 100 % of control | dose: 200.0 mg/kg/injection, schedule: Q04DX003 (ip), vehicle: saline 97 % of control | dose: 256.0 mg/kg/injection, schedule: Q04DX003 (ip), vehicle: water 100 % of control | [12] 93 % of control and 100 % of control (2×)

C1CCN2CC3CC(CN4CCCCC34)C2C1 (stereo unspecified)
inactive: dose: 10.0 mg/kg/injection, schedule: Q01DX001 (ip), vehicle: saline 100 % of control | dose: 20.0 mg/kg/injection, schedule: Q01DX001 (ip), vehicle: saline 100 % of control | dose: 40.0 mg/kg/injection, schedule: Q01DX001 (ip), vehicle: saline 100 % of control

ClC1=C(Cl)C2(Cl)C(COc3ccc(Cl)cc3)CC1(Cl)C2(Cl)Cl (stereo unspecified)
inactive: [13] 94 % of control | [10] 88 % of control | [12] 91 % of control

Cc1cnc2c(=N)n(C(=O)C(F)(F)F)n(C)c2n1
inactive: [13] 89 % of control | [10] 100 % of control | [12] 92 % of control

Clc1ccc(/C(=[C](\[Hg]/[C](=C(\c2ccccc2)c2ccc(Cl)cc2)c2ccccc2)c2ccccc2)c2ccccc2)cc1
inactive: [14] 97 % of control | [8] 100 % of control | [15] 107 % of control | [11] 88 % of control | [16] 97 % of control | dose: 400.0 mg/kg/injection, schedule: Q04DX003 (ip), vehicle: Klucel (hydroxypropylcellulose) (HPC) 100 % of control

NC(CSC(c1ccccc1)(c1ccccc1)c1ccccc1)C(=O)O (stereo unspecified)
inactive: dose: 0.6 mg/kg/injection, schedule: Q01DX009 (ip), vehicle: Klucel (hydroxypropylcellulose) (HPC) 111 % of control | dose: 1.2 mg/kg/injection, schedule: Q01DX009 (ip), vehicle: Klucel (hydroxypropylcellulose) (HPC) 114 % of control and 117 % of control | dose: 2.5 mg/kg/injection, schedule: Q01DX009 (ip), vehicle: Klucel (hydroxypropylcellulose) (HPC) 117 % of control | dose: 5.0 mg/kg/injection, schedule: Q01DX009 (ip), vehicle: Klucel (hydroxypropylcellulose) (HPC) 88 % of control and 120 % of control | dose: 6.0 mg/kg/injection, schedule: Q01DX009 (ip), vehicle: Klucel (hydroxypropylcellulose) (HPC) 94 % of control | dose: 6.2 mg/kg/injection, schedule: Q04DX003 (ip), vehicle: Klucel (hydroxypropylcellulose) (HPC) 108 % of control | dose: 6.25 mg/kg/injection, schedule: Q01DX009 (ip), vehicle: Klucel (hydroxypropylcellulose) (HPC) 94 % of control | dose: 10.0 mg/kg/injection, schedule: Q01DX009 (ip), vehicle: Klucel (hydroxypropylcellulose) (HPC) 102 % of control | dose: 12.0 mg/kg/injection, schedule: Q01DX009 (ip), vehicle: Klucel (hydroxypropylcellulose) (HPC) 88 % of control | [1] 94 % of control | dose: 12.5 mg/kg/injection, schedule: Q04DX003 (ip), vehicle: Klucel (hydroxypropylcellulose) (HPC) 91 % of control and 94 % of control and 102 % of control | dose: 20.0 mg/kg/injection, schedule: Q01DX009 (ip), vehicle: Klucel (hydroxypropylcellulose) (HPC) 102 % of control and 108 % of control | [2] 91 % of control and 100 % of control | [3] 94 % of control and 97 % of control and 109 % of control | [4] 94 % of control and 97 % of control | [5] 102 % of control | dose: 37.5 mg/kg/injection, schedule: Q01DX001 (ip), vehicle: saline 102 % of control and 103 % of control (2×) | [6] 105 % of control | [7] 97 % of control | dose: 75.0 mg/kg/injection, schedule: Q01DX001 (ip), vehicle: saline 95 % of control and 103 % of control and 110 % of control | [14] 97 % of control | [13] 100 % of control | [9] 91 % of control | dose: 150.0 mg/kg/injection, schedule: Q01DX001 (ip), vehicle: saline 90 % of control and 105 % of control and 106 % of control | [15] 109 % of control | [16] 118 % of control

CC12CC3CC(C1)CC(C(=O)O)(C3)C2
inactive: [5] 97 % of control | [7] 102 % of control | [13] 100 % of control | [9] 100 % of control | [10] 101 % of control | [12] 108 % of control

CC(C)c1ccc(C(c2c(O)c3ccccc3oc2=O)c2c(O)c3ccccc3oc2=O)cc1
inactive: [14] 113 % of control | [15] 106 % of control | [16] 90 % of control

COc1cccc2c1C(=O)c1c(O)c3c(c(O)c1C2=O)C[C@@](O)(C(C)=O)C[C@@H]3OC1CC(N)C(O)C(C)O1 (stereo partly specified)
inactive: dose: 0.02 mg/kg/injection, schedule: Q01DX015 (ip), vehicle: saline 100 % of control | dose: 0.05 mg/kg/injection, schedule: Q01DX010 (ip), vehicle: saline 112 % of control | dose: 0.05 mg/kg/injection, schedule: Q01DX015 (ip), vehicle: saline 115 % of control | dose: 0.1 mg/kg/injection, schedule: Q01DX010 (ip), vehicle: saline 119 % of control | dose: 0.1 mg/kg/injection, schedule: Q01DX015 (ip), vehicle: saline 101 % of control and 110 % of control | dose: 0.18 mg/kg/injection, schedule: Q01DX015 (ip), vehicle: saline 106 % of control | dose: 0.2 mg/kg/injection, schedule: Q01DX010 (ip), vehicle: saline 122 % of control | dose: 0.2 mg/kg/injection, schedule: Q01DX015 (ip), vehicle: saline 106 % of control | dose: 0.3 mg/kg/injection, schedule: Q01DX015 (ip), vehicle: saline 99 % of control | dose: 0.37 mg/kg/injection, schedule: Q01DX015 (ip), vehicle: saline 121 % of control | dose: 0.4 mg/kg/injection, schedule: Q01DX015 (ip), vehicle: saline 103 % of control and 113 % of control
